{"source": "patent US20080182853A1", "about": "“Methods of neuroprotection by cyclin-dependent kinase inhibition” (priority 2006, published 2008)", "key": {"cortical neurons [1]": {"test_system": "cortical neurons", "quoted_text": "Treatment with 1 μM PD 0332991 (obtained from Pfizer) was carried out for 12 h in complete medium; H2O2 was added at the indicated times and doses.\nAnalysis of neuronal survival and apoptosis. Neuronal viability was assessed by quantifying apoptotic nuclei following the treatments. Cells were fixed and stained with DNA-binding dye propidium iodide (PI) (10 μg/ml; Sigma), and the percentage of cells with apoptotic nuclei was calculated as described previously (Kruman, I. I., et al. 2002. J. Neurosci. 22:1752-1762; Tenneti, L. and S. A. Lipton. 2000. J Neurochem. 74:134-142). Nuclear staining was viewed and photographed using a Zeiss fluorescence microscope. Apoptosis was also determined by immunoblot analysis for activated (cleaved) caspase-3 (polyclonal; 1 μg/ml; Upstate Cell Signaling Solutions), cleaved Mcm3 (polyclonal, 1:200; Santa-Cruz), Mcm2 (BM28; monoclonal; 1:200; BD Biosciences), and fractin (cleaved β-actin; 1:3000; Chemicon) in cellular extracts from corresponding neuronal 5 cultures."}, "cortical neurons [2]": {"test_system": "cortical neurons", "details": "5 μM H2O2, 6 h; neutral comet assay; FIG. 2A", "quoted_text": "Single Cell Gel Electrophoresis (Comet assay). DNA damage was assessed using the alkaline or neutral single-cell gel electrophoresis (comet assay) method (Kruman, I. I., et al. 2004. Neuron. 41:549-561; Kruman, I. I., et al. 2002. J Neurosci. 22:1752-176229). We used the neutral comet assay which is specific for detecting DSBs (Wojewodzka, M., et al. 2002. Mutat Res. 518:9-20). Following treatment, neurons were scraped and cell suspensions (˜10,000 cells) were embedded into 0.5% low melting agarose on slides (Trevigen, Gaithersburg, Md.). After treatment with cold lysis buffer (Trevigen) containing 1% Triton X-100 and 10% DMSO, the slides were incubated for 1 h in freshly prepared electrophoresis buffer, 300 mM sodium acetate, 100 mM Tris HCl, pH 8.3 (neutral comet assay) or 300 mM NaOH, 1 mM EDTA, pH>13 (alkaline comet assay). Then electrophoresis was performed at 14V and 60 mA for 1 h (neutral comet assay) or at 25V and 300 mA for 30 min (alkaline comet assay) at 8° C., stained with SYBR green (Trevigen), and analyzed using an Olympus BX51 fluorescent microscope and the comet assay image analysis software (Loats Associates Inc.). […] Images of 50 randomly selected cells were analysed from each slide. […]"}, "primary cortical neurons": {"test_system": "primary cortical neurons", "experiment": "H2O2-induced apoptosis in cultured cortical neurons (apoptotic nuclei count)", "assay_type": "cell-based, rat", "details": "12 h pretreatment with 1 μM PD 0332991, then 100 μM H2O2 for 18 h; Hoechst 33342; FIG. 4B", "experimental": "All experiments involving the use of animals were approved by the IACUC at the Georgetown University Medical Center, Washington, D.C. Primary cortical cell cultures were established from E18 Sprague-Dawley rats obtained from Jackson Laboratories.\nFollowing dissociation by mild trypsinization and trituration, cells were seeded onto plastic dishes or chamber slides precoated with 0.025 μg/ml poly-L-lysine, at a density of 1.3×10^3 neurons/mm^2 in Neurobasal medium containing B-27 supplement, 1 mM HEPES, 2 mM […] and 0.001% gentamycin sulfate; fresh medium was replaced after 30 minutes.\nAnalysis of neuronal survival and apoptosis."}, "pRb phosphorylation": {"test_system": "pRb phosphorylation", "experiment": "pRb phosphorylation by Western blot in cortical neurons", "assay_type": "cell-based, rat", "details": "12 h pretreatment with 1 μM PD 0332991, then 100 μM H2O2 for 6 h; FIG. 4A", "experimental": "Immunoblot analyses. For total cell lysates, cortical neurons were lysed in ice-cold buffer consisting of 63 mM Tris, 2 mM EDTA, 2 mM EGTA, 2% sodium dodecyl sulfate, 10% glycerol, and a protease inhibitor cocktail (Sigma), pH 6.0. For the preparation of nuclear lysates (for analysis of cyclin D1 and γ-H2AX), cortical neurons were lysed in ice-cold buffer containing protease inhibitor cocktail (Sigma) and incubated with hydrochloric acid (0.2 M) on ice for 30 min.\nAs a loading control we used anti-β-actin or anti-glyceraldehyde-3-phosphate dehydrogenase (GAPDH) antibodies.\nProtein bands were visualized with horseradish peroxidase-conjugated secondary antibodies (1:3000; Jackson Immunological Research Laboratories Inc.) and enhanced using chemiluminescence (ECL kit, Amersham Corp.). Densitometric analysis of the blots were performed using the Kodak software ID 3.5.3 USB, and the intensity of the signal (normalized to the β-actin signals) was expressed as a ratio of the control signals."}, "CDK4 and CDK6": {"test_system": "CDK4 and CDK6", "details": "Fry et al. 2004; cited from earlier work"}, "tumor": {"test_system": "tumor", "details": "mice; cited from earlier work"}, "neuronal apoptosis": {"test_system": "neuronal apoptosis", "details": "in vitro; cited from earlier work"}, "ischemia models": {"test_system": "ischemia models", "details": "in vivo; cited from earlier work"}}, "data": [{"smiles": "OO", "note": "[H2O2, hydrogen peroxide]", "values": [{"measurement": "apoptosis of cortical neurons", "setting": "cortical neurons [1]; 5 μM H2O2, by 24 h or 48 h", "result": "did not induce apoptosis"}, {"measurement": "apoptotic death of cortical neurons", "setting": "cortical neurons [1]; 100 μM H2O2, FIG. 1", "result": "significant apoptotic death beginning by 9 h"}, {"measurement": "DNA damage (comet tails)", "setting": "cortical neurons [2]", "result": "significant increase of DNA damage"}]}, {"smiles": "CC(=O)c1c(C)c2cnc(Nc3ccc(N4CCNCC4)cn3)nc2n(C2CCCC2)c1=O", "note": "[PD 0332991]", "values": [{"measurement": "extent of apoptosis", "setting": "primary cortical neurons", "result": "significant reduction in the extent of apoptosis"}, {"measurement": "phosphorylation of pRb", "setting": "pRb phosphorylation", "result": "down-regulates phosphorylation of pRb"}, {"measurement": "specificity as inhibitor of CDK4 and CDK6", "setting": "CDK4 and CDK6", "result": "highly specific inhibitor of CDK4 and CDK6"}, {"measurement": "tumor regression", "setting": "tumor", "result": "effective in causing tumor regression in mice"}]}, {"smiles": "CN1CC[C@H](c2c(O)cc(O)c3c(=O)cc(-c4ccccc4Cl)oc23)[C@H](O)C1", "note": "[flavopiridol]", "values": [{"measurement": "prevention of neuronal apoptosis", "setting": "neuronal apoptosis", "result": "very potent in preventing neuronal apoptosis in vitro"}, {"measurement": "protection in ischemia models", "setting": "ischemia models", "result": "protective"}]}]}
